Data set [1] has as its system hepatocellular HA-22T cancer cells. Nature of the data set: In vitro cytotoxicity MTS assay, hepatocellular HA-22T. The class given is cell-based, human. The conditions noted are these: 72 hours. As to the method:
(§1) A panel of human cancer cells, gastric NUGC3 and HR, nasopharyngeal HONE1, hepatocellular HEP G2 and HA-22T, colorectal DLD1, lung A549, prostate PC3, breast MCF7 and its adriamycin-resistant MCF7/ADR subline, uterus MES-SA and its adriamycin-resistant MES-SA/Dx5 subline, is purchased from Food Industry Research and Development Institute, Hsinchu, Taiwan R.O.C. or American Type Culture Collection, Manassas, Va. U.S.A., are used in in vitro cytotoxicity assays. The human cells are seeded at a cell density of 3000 or 4500 cells/100 μl/well in 96-well flat-bottom plates and incubated for 24 hours at 37° C. in a 5% CO2 incubator. The testing compounds are dissolved in dimethyl sulfoxide (DMSO) and further diluted into the culture medium for treatments of human cancer cells in vitro. The drug-containing media has a final DMSO concentration of ≦0.3%. The compounds of this invention are prepared in culture media for testing at a range of concentrations from 10, 1, 0.1, 0.01 to 0.001 μM. Each compound solution is (200 μl/well in duplicate) in the cell plates and is treated for 72 hours at 37° C., 5% CO2 in an incubator. Actinomycin D at 5 μM and 0.3% DMSO are used as the positive and vehicle controls, respectively. A colorimetric assay using 3-(4,5-dimethylthiazol-2-yl)-5-(3-carboxymethoxyphenyl)-2-(4-sulfophenyl)-2H-tetrazolium (MTS) and phenazine methosulfate (PMS) is used to determine the potency of the compounds. This assay measures cell viability based on the cellular activity in conversion of a tetrazolium salt into a colored soluble formazan product. The optical density (OD) values are measured at 490 nm with a 1420 multilabel counter VICTOR® from Wallac, Turku, Finland. All of the measured values are subtracted with that of the blank control wells without cells before further calculations. The efficacy data are expressed as a percentage normalized to the vehicle controls as calculated in the following formulae. Inhibitory potency (% of vehicle control)=[(OD490compound−OD490blank)/(OD490vehicle−OD490blank)]×100%. The concentration (IC50) of a test compound that inhibits 50% of the cellular activity is determined.
(In general: Formazan colour is commonly taken as a measure of viable cells.)

The test system of another data set is breast MCF7 cancer cells. As to the kind of experiment: In vitro cytotoxicity MTS assay, breast MCF7. In kind it is cell-based, human. Conditions: 72 hours. The method, then: as §1
Data set [2] deals with gastric NUGC3 cancer cells. Nature of the data set: In vitro cytotoxicity MTS assay, gastric NUGC3. Conditions: 72 hours. The class given is cell-based, human. The method, then:
as §1

The test system of data set [3] is murine leukemic P388 cells. Nature of the data set: In vivo anticancer activity, murine leukemic P388 model. The conditions noted are these: P388-inoculated mice; for increase of life span: P.O., daily, 4×; for activity in the increase of life span (dose-response): oral. Further details: species or system DBA/2J mice. As to the method: The in vivo anticancer activities of the compounds are evaluated by the following murine leukemic P388 model. Inbred female DBA/2J mice of 4-5 week-old were purchased from the Charles River Laboratories Inc., Wilmington, Mass., USA and the National Laboratory Animals Breeding and Research Center, Taipei, Taiwan, ROC. Murine leukemic P388 cells are purchased from the Japanese Collection of Research Bioresources, Japan. P388 cells are cultured and propagated in RPMI1640 medium supplemented with 50 μM 2-mercaptoethanol and 10% fetal bovine serum. Mice at the age of 6 weeks were grouped as the treatment, negative control and positive control groups at 7 to 8 mice per group. All mice are intravenously inoculated with the P388 cells at one million per mouse one day before the treatments initiated. Compounds of this invention are dissolved in dimethyl sulfoxide (DMSO) and then diluted in 0.5% carboxymethyl cellulose with the final concentration of DMSO less than 0.5%. Different treatment groups are orally given (P.O.), respectively, with compounds of different doses for a pharmacological dose-response relationship. Mice of the negative control group are treated with the dosing vehicle, 0.5% carboxymethyl cellulose. Doxorubicin of the maximal tolerated dose, 10 mg/kg, is given intravenously as an experimental positive control. The cancer cell-inoculated animals are monitored twice daily. The time on which 50% of the P388-inoculated mice is still surviving is defined as the medium survival time and is used to calculate the percentage (normalized to the medium survival time of the control group) of increased in life span after treatment, which is then served as the index of treatment response.

Data set [4] relates to adriamycin-resistant MCF7/ADR subline. Nature of the data set: In vitro cytotoxicity MTS assay, adriamycin-resistant MCF7/ADR. In kind it is cell-based, human. Conditions: 72 hours. The method, then: as §1
In data set [5] the test system is hepatocellular HEP G2 cancer cells. Nature of the data set: In vitro cytotoxicity MTS assay, hepatocellular HEP G2. In kind it is cell-based, human. Conditions: 72 hours. The method, then:
as §1

The subject of data set [6] is nasopharyngeal HONE1 cancer cells. Nature of the data set: In vitro cytotoxicity MTS assay, nasopharyngeal HONE1. The class given is cell-based, human. Conditions: 72 hours. The method, then: as §1
In data set [7] the test system is adriamycin-resistant MES-SA/Dx5 subline. As to the kind of experiment: In vitro cytotoxicity MTS assay, adriamycin-resistant MES-SA/Dx5. In kind it is cell-based, human. The conditions noted are these: 72 hours. As to the method:
as §1

Data set [8] deals with colorectal DLD1 cancer cells. As to the kind of experiment: In vitro cytotoxicity MTS assay, colorectal DLD1. The class given is cell-based, human. The conditions noted are these: 72 hours. As to the method:
as §1

Data set [9] concerns human colorectal SW480 tumor xenograft. As to the kind of experiment: Antitumor activity, human colorectal SW480 tumor xenograft. The class given is in vivo, athymic nude mice. The method, then:
Human colorectal SW480 cancer cells were subcutaneously implanted into the young male athymic nude mice at 1 million cells per mouse. The treatment schedule of 200 mg/kg daily oral administration for 6 weeks was initiated at the time which the tumor size reached 50˜100 mm^3. Compound was orally gavaged to the nude mice subcutaneously bearing human colorectal SW480 tumor xenograft based on the treatment schedule. The tumor size and body weight of the animals were monitored twice a week through out the 70-day period of observation. The tumor growth was suppressed by the daily oral treatments of compound 56. Tumor sizes of the treated and vehicle control groups were compared at the end of 70-day observation. The size of tumor mass subcutaneously implanted in the nude mice for the treated group was reduced to 26% compared to that of the vehicle control group at the end of the observation period.

Data on two molecules can be found in patent US6903104B2, “Indol-3-YL-2-oxoacetamide compounds and methods of use thereof” (National Health Research Institutes, priority 2001, dated 2005).

Structures are written as SMILES.

A word on the IC50: it is the concentration that gives 50% inhibition. A high value points to weaker potency. With `Cc1cc(NC(=O)C(=O)c2cn(Cc3ccc(C#N)cc3)c3ccccc23)sn1` [Compound 25], the IC50 in data set [1] worked out at 692 nM; in the data set with breast MCF7 cancer cells it was 469 nM; in data set [2], 514 nM; in data set [4], 5240 nM; in data set [5], 1790 nM; in data set [6] it was 207 nM. Moreover, the IC50 was determined as 398 nM in [7] and 543 nM in data set [8]. In addition, the “increase of life span” value amounted to 14 ± 1% in [3] (25 mg/kg), 27 ± 3% in data set [3] (50 mg/kg), 20 ± 8% in data set [3] (100 mg/kg) and 46 ± 24% in data set [3] (200 mg/kg). Besides, the “activity in the increase of life span (dose-response)” value in data set [3] is reported as “dose-dependent activity”.
For `Cc1cc(Cn2cc(C(=O)C(=O)Nc3cc(C)ns3)c3ccccc32)on1` [Compound 56], the IC50 in [1] was found to be 123 nM; in the data set with breast MCF7 cancer cells it was 36 nM; in data set [2], 12 nM; in [4], 5000 nM; in data set [5], 93 nM; in data set [6], 4 nM. Besides, the IC50 in data set [7] came out at 368 nM; in data set [8], 41 nM. Besides, the “increase of life span” value in [3] (25 mg/kg) came out at 26 ± 27%; in data set [3] (50 mg/kg), 57 ± 20%; in data set [3] (100 mg/kg) it was 63 ± 17%; in [3] (200 mg/kg) it was 100 ± 21%. For the same molecule, in data set [3], the “activity in the increase of life span (dose-response)” value is given as “dose-dependent activity”. In [9] (200 mg/kg daily oral for 6 weeks, end of 70-day observation), the “size of tumor mass compared to that of the vehicle control group” value is reported as 26%. Moreover, the tumor growth result in [9] (200 mg/kg daily oral treatments) is recorded as “suppressed”. The “toxicity as noted by loss of the body weight” value in [9] (oral multiple dosing, 200 mg/kg daily for 6 weeks) is “no obvious toxicity”.
